Data taken from US12509452B2, “Substituted-isoxazoline-containing aromatic compound, preparation method therefor, herbicidal composition and use thereof” (QINGDAO KINGAGROOT CHEMICAL COMPOUND CO., LTD., priority 2019, dated 2025).

Experiments:
Assay in all cases: weeding effect in post-emergence stage
Format in all cases: in vivo
Alopecurus japonicus = system: Alopecurus japonicus
Text: (§1) The activity level criteria for plant damage (i.e., growth control rate) are as follows: • Level 5: growth control rate is above 85%; • Level 4: growth control rate is greater than or equal to 60% and less than 85%; • Level 3: growth control rate is greater than or equal to 40% and less than 60%; • Level 2: growth control rate is greater than or equal to 20% and less than 40%; • Level 1: growth control rate is greater than or equal to 5% and less than 20%; • Level 0: growth control rate is less than 5%.
(§2) The above growth control rates are fresh weight control rates.
(§3) Experiment on weeding effect in post-emergence stage:
(§4) Monocotyledonous and dicotyledonous weed seeds (Descurainia sophia, Capsella bursa-pastoris, Abutilon theophrasti, Galium aparine, Stellaria media, Lithospermum arvense, Rorippa indica, Alopecurus aequalis, Alopecurus japonicus, Beckmannia syzigachne, Sclerochloa dura, Conyza Canadensis, Phleum paniculatum, Veronica didyma Tenore, Bromus japonicus, Aegilops tauschii, Phalaris arundinacea, Amaranthus retroflexus, Chenopodium album, Commelina communis, Sonchus arvensis, Convolvulus arvensis, Cirsium setosum, Solanum nigrum, Acalypha australis, Digitaria sanguinalis, Echinochloa crusgalli, Setaria viridis, Setaria glauca, Leptochloa chinensis, Monochoria vaginalis, Sagittaria trifolia, Scirpus juncoides, Cyperus rotundus, Cyperus iria, Cyperus difformis, Fimbristylis, Portulaca oleracea, Xanthium sibiricum, Pharbitis nil, Conyza japonica, etc.) and major crop seeds (wheat, corn, rice, soybean, cotton, oilseed rape, millet, sorghum, potato, sesame, ricinus, etc.) were placed in plastic pots filled with soil, then covered with 0.5-2 cm of soil, allowed to grow in a good greenhouse environment. After 2 weeks of sowing, the test plants were treated in the 2-3 leaf stage. The tested compounds of the present invention were respectively dissolved in acetone, then added with Tween 80 and 1.5 liter/ha of emulsifiable concentrate of methyl oleate as synergist, diluted with a certain amount of water to obtain a solution with a certain concentration, and sprayed with a spray tower onto the plants. After the application, the plants were cultured for 3 weeks in the greenhouse, and then the experimental results of the weeding were counted. The doses of the used compounds were 500, 250, 125, 60, 15, 7.5 g a.i./ha, and the averages were obtained by repeating for three times.

Beckmannia syzigachne = system: Beckmannia syzigachne
Text: as §1, §2, §3, §4

Conyza japonica = system: Conyza japonica
Text: as §1, §2, §3, §4

Rorippa indica = system: Rorippa indica
Text: as §1, §2, §3, §4

CCOC(=O)C1(CO)CC(c2cc(-n3c(=O)cc(C(F)(F)F)n(C)c3=O)c(F)cc2Cl)=NO1 (racemic) [Compound 142]
weeding effect in post-emergence stage, Alopecurus japonicus (activity level) (Alopecurus japonicus; dose 125 g a.i./ha): 5 (Level 5: growth control rate is above 85%)
weeding effect in post-emergence stage, Beckmannia syzigachne (activity level) (Beckmannia syzigachne; dose 125 g a.i./ha): 5 (Level 5: growth control rate is above 85%)
weeding effect in post-emergence stage, Conyza japonica (activity level) (Conyza japonica; dose 125 g a.i./ha): 5 (Level 5: growth control rate is above 85%)
weeding effect in post-emergence stage, Rorippa indica (activity level) (Rorippa indica; dose 125 g a.i./ha): 5 (Level 5: growth control rate is above 85%)

CCOC(=O)C1(C=O)CC(c2cc(-n3c(=O)cc(C(F)(F)F)n(C)c3=O)c(F)cc2Cl)=NO1 (racemic) [Compound 152]
weeding effect in post-emergence stage, Alopecurus japonicus (activity level) (Alopecurus japonicus; dose 125 g a.i./ha): 5 (Level 5: growth control rate is above 85%)
weeding effect in post-emergence stage, Beckmannia syzigachne (activity level) (Beckmannia syzigachne; dose 125 g a.i./ha): 5 (Level 5: growth control rate is above 85%)
weeding effect in post-emergence stage, Conyza japonica (activity level) (Conyza japonica; dose 125 g a.i./ha): 5 (Level 5: growth control rate is above 85%)
weeding effect in post-emergence stage, Rorippa indica (activity level) (Rorippa indica; dose 125 g a.i./ha): 5 (Level 5: growth control rate is above 85%)

CCOC(=O)C1(COC=O)CC(c2cc(-n3c(=O)cc(C(F)(F)F)n(C)c3=O)c(F)cc2Cl)=NO1 (racemic) [Compound 218]
weeding effect in post-emergence stage, Alopecurus japonicus (activity level) (Alopecurus japonicus; dose 125 g a.i./ha): 5 (Level 5: growth control rate is above 85%)
weeding effect in post-emergence stage, Beckmannia syzigachne (activity level) (Beckmannia syzigachne; dose 125 g a.i./ha): 5 (Level 5: growth control rate is above 85%)
weeding effect in post-emergence stage, Conyza japonica (activity level) (Conyza japonica; dose 125 g a.i./ha): 5 (Level 5: growth control rate is above 85%)
weeding effect in post-emergence stage, Rorippa indica (activity level) (Rorippa indica; dose 125 g a.i./ha): 5 (Level 5: growth control rate is above 85%)

CCOC(=O)C1(COC(C)=O)CC(c2cc(-n3c(=O)cc(C(F)(F)F)n(C)c3=O)c(F)cc2Cl)=NO1 (racemic) [Compound 219]
weeding effect in post-emergence stage, Alopecurus japonicus (activity level) (Alopecurus japonicus; dose 125 g a.i./ha): 5 (Level 5: growth control rate is above 85%)
weeding effect in post-emergence stage, Beckmannia syzigachne (activity level) (Beckmannia syzigachne; dose 125 g a.i./ha): 5 (Level 5: growth control rate is above 85%)
weeding effect in post-emergence stage, Conyza japonica (activity level) (Conyza japonica; dose 125 g a.i./ha): 5 (Level 5: growth control rate is above 85%)
weeding effect in post-emergence stage, Rorippa indica (activity level) (Rorippa indica; dose 15 g a.i./ha): 4 (Level 4: growth control rate is greater than or equal to 60% and less than 85%)
weeding effect in post-emergence stage, Rorippa indica (activity level) (Rorippa indica; dose 125 g a.i./ha): 5 (Level 5: growth control rate is above 85%)

CCOC(=O)C1(COC(=O)C(=O)O)CC(c2cc(-n3c(=O)cc(C(F)(F)F)n(C)c3=O)c(F)cc2Cl)=NO1 (racemic) [Compound 220]
weeding effect in post-emergence stage, Alopecurus japonicus (activity level) (Alopecurus japonicus; dose 125 g a.i./ha): 5 (Level 5: growth control rate is above 85%)
weeding effect in post-emergence stage, Beckmannia syzigachne (activity level) (Beckmannia syzigachne; dose 125 g a.i./ha): 5 (Level 5: growth control rate is above 85%)
weeding effect in post-emergence stage, Conyza japonica (activity level) (Conyza japonica; dose 125 g a.i./ha): 5 (Level 5: growth control rate is above 85%)
weeding effect in post-emergence stage, Rorippa indica (activity level) (Rorippa indica; dose 125 g a.i./ha): 5 (Level 5: growth control rate is above 85%)

COC(=O)C1(OC)CC(c2cc(-n3c(=O)cc(C(F)(F)F)n(C)c3=O)c(F)cc2Cl)=NO1 (racemic) [Compound 226]
weeding effect in post-emergence stage, Alopecurus japonicus (activity level) (Alopecurus japonicus; dose 125 g a.i./ha): 5 (Level 5: growth control rate is above 85%)
weeding effect in post-emergence stage, Beckmannia syzigachne (activity level) (Beckmannia syzigachne; dose 125 g a.i./ha): 5 (Level 5: growth control rate is above 85%)
weeding effect in post-emergence stage, Conyza japonica (activity level) (Conyza japonica; dose 125 g a.i./ha): 5 (Level 5: growth control rate is above 85%)
weeding effect in post-emergence stage, Rorippa indica (activity level) (Rorippa indica; dose 125 g a.i./ha): 5 (Level 5: growth control rate is above 85%)

CCOC(=O)C1(CC)CC(c2cc(-n3c(=S)cc(C(F)(F)F)n(C)c3=O)c(F)cc2Cl)=NO1 (racemic) [Compound 228]
weeding effect in post-emergence stage, Alopecurus japonicus (activity level) (Alopecurus japonicus; dose 15 g a.i./ha): 5 (Level 5: growth control rate is above 85%)
weeding effect in post-emergence stage, Alopecurus japonicus (activity level) (Alopecurus japonicus; dose 125 g a.i./ha): 5 (Level 5: growth control rate is above 85%)
weeding effect in post-emergence stage, Beckmannia syzigachne (activity level) (Beckmannia syzigachne; dose 15 g a.i./ha): 4 (Level 4: growth control rate is greater than or equal to 60% and less than 85%)
weeding effect in post-emergence stage, Beckmannia syzigachne (activity level) (Beckmannia syzigachne; dose 125 g a.i./ha): 5 (Level 5: growth control rate is above 85%)
weeding effect in post-emergence stage, Conyza japonica (activity level) (Conyza japonica; dose 15 g a.i./ha): 5 (Level 5: growth control rate is above 85%)
weeding effect in post-emergence stage, Conyza japonica (activity level) (Conyza japonica; dose 125 g a.i./ha): 5 (Level 5: growth control rate is above 85%)
weeding effect in post-emergence stage, Rorippa indica (activity level) (Rorippa indica; dose 15 g a.i./ha): 5 (Level 5: growth control rate is above 85%)
weeding effect in post-emergence stage, Rorippa indica (activity level) (Rorippa indica; dose 125 g a.i./ha): 5 (Level 5: growth control rate is above 85%)

CCOC(=O)C1(CC)CC(c2cc(-n3c(=O)cc(C(F)(F)F)n(C)c3=S)c(F)cc2Cl)=NO1 (racemic) [Compound 229]
weeding effect in post-emergence stage, Alopecurus japonicus (activity level) (Alopecurus japonicus; dose 125 g a.i./ha): 5 (Level 5: growth control rate is above 85%)
weeding effect in post-emergence stage, Beckmannia syzigachne (activity level) (Beckmannia syzigachne; dose 125 g a.i./ha): 5 (Level 5: growth control rate is above 85%)
weeding effect in post-emergence stage, Conyza japonica (activity level) (Conyza japonica; dose 125 g a.i./ha): 5 (Level 5: growth control rate is above 85%)
weeding effect in post-emergence stage, Rorippa indica (activity level) (Rorippa indica; dose 125 g a.i./ha): 5 (Level 5: growth control rate is above 85%)

CCOC(=O)C1(CC)CC(c2cc(-n3c(=S)cc(C(F)(F)F)n(C)c3=S)c(F)cc2Cl)=NO1 (racemic) [Compound 230]
weeding effect in post-emergence stage, Alopecurus japonicus (activity level) (Alopecurus japonicus; dose 125 g a.i./ha): 5 (Level 5: growth control rate is above 85%)
weeding effect in post-emergence stage, Beckmannia syzigachne (activity level) (Beckmannia syzigachne; dose 125 g a.i./ha): 5 (Level 5: growth control rate is above 85%)
weeding effect in post-emergence stage, Conyza japonica (activity level) (Conyza japonica; dose 125 g a.i./ha): 5 (Level 5: growth control rate is above 85%)
weeding effect in post-emergence stage, Rorippa indica (activity level) (Rorippa indica; dose 125 g a.i./ha): 5 (Level 5: growth control rate is above 85%)

CCOC(=O)C1(C2CC2)CC(c2cc(-n3c(=S)cc(C(F)(F)F)n(C)c3=O)c(F)cc2Cl)=NO1 (racemic) [Compound 231]
weeding effect in post-emergence stage, Alopecurus japonicus (activity level) (Alopecurus japonicus; dose 125 g a.i./ha): 5 (Level 5: growth control rate is above 85%)
weeding effect in post-emergence stage, Beckmannia syzigachne (activity level) (Beckmannia syzigachne; dose 15 g a.i./ha): 4 (Level 4: growth control rate is greater than or equal to 60% and less than 85%)
weeding effect in post-emergence stage, Beckmannia syzigachne (activity level) (Beckmannia syzigachne; dose 125 g a.i./ha): 5 (Level 5: growth control rate is above 85%)
weeding effect in post-emergence stage, Conyza japonica (activity level) (Conyza japonica; dose 15 g a.i./ha): 5 (Level 5: growth control rate is above 85%)
weeding effect in post-emergence stage, Conyza japonica (activity level) (Conyza japonica; dose 125 g a.i./ha): 5 (Level 5: growth control rate is above 85%)
weeding effect in post-emergence stage, Rorippa indica (activity level) (Rorippa indica; dose 15 g a.i./ha): 5 (Level 5: growth control rate is above 85%)
weeding effect in post-emergence stage, Rorippa indica (activity level) (Rorippa indica; dose 125 g a.i./ha): 5 (Level 5: growth control rate is above 85%)

CCOC(=O)[C@]1(CC)CC(c2cc(-n3c(=O)n(C)c(=S)n(C)c3=O)c(F)cc2Cl)=NO1 [3(S)]
weeding effect in post-emergence stage, Alopecurus japonicus (activity level) (Alopecurus japonicus; dose 7.5 g a.i./ha): 5 (Level 5: growth control rate is above 85%)
weeding effect in post-emergence stage, Alopecurus japonicus (activity level) (Alopecurus japonicus; dose 125 g a.i./ha): 5 (Level 5: growth control rate is above 85%)
weeding effect in post-emergence stage, Beckmannia syzigachne (activity level) (Beckmannia syzigachne; dose 7.5 g a.i./ha): 4 (Level 4: growth control rate is greater than or equal to 60% and less than 85%)
weeding effect in post-emergence stage, Beckmannia syzigachne (activity level) (Beckmannia syzigachne; dose 125 g a.i./ha): 5 (Level 5: growth control rate is above 85%)
weeding effect in post-emergence stage, Conyza japonica (activity level) (Conyza japonica; dose 7.5 g a.i./ha): 4 (Level 4: growth control rate is greater than or equal to 60% and less than 85%)
weeding effect in post-emergence stage, Conyza japonica (activity level) (Conyza japonica; dose 125 g a.i./ha): 5 (Level 5: growth control rate is above 85%)
weeding effect in post-emergence stage, Rorippa indica (activity level) (Rorippa indica; dose 7.5 g a.i./ha): 5 (Level 5: growth control rate is above 85%)
weeding effect in post-emergence stage, Rorippa indica (activity level) (Rorippa indica; dose 125 g a.i./ha): 5 (Level 5: growth control rate is above 85%)
